Experimental data as given in patent US20220348590A1, “CYCLOOXYGENASE-2 INHIBITORS AND USES THEREOF” (The Board Institute, Inc., priority 2019, published 2022).
Where two headings read alike, the source gives them in different places.

Biological target: T1, human recombinant COX2 (hCOX2) (UniProt P35354)
T1 sequence (P35354 1-604): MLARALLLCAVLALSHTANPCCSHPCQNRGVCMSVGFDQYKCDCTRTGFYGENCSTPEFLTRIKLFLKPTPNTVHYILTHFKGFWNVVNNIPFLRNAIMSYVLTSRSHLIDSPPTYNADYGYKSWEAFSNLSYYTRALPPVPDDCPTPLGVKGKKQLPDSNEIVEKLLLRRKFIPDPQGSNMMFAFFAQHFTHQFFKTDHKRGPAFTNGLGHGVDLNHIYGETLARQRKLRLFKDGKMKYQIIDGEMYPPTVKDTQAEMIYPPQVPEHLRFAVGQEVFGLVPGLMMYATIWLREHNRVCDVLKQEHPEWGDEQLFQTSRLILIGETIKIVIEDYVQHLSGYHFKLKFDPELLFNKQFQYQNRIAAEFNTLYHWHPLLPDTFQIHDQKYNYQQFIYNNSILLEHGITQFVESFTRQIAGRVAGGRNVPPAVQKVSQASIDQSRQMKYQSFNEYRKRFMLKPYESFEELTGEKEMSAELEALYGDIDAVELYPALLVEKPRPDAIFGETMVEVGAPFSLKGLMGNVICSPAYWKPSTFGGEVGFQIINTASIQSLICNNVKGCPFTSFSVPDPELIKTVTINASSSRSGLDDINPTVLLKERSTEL
Assay: LCMS-based COX2 enzymatic inhibition assay (PGE2 quantification)
Type: biochemical
Parameters: COX2 2 minutes pge2/pge2d4 area ratio Avg; other: 2 minutes; readout pge2/pge2d4 area ratio; average; COX2 2 minutes pge2/pge2d4 area ratio Avg; LLE; average LLE; COX2 2 minutes pge2 area (counts) Avg; readout pge2 area (counts); other: 2 min; "ovine COX2 (oCOX2), human recombinant COX2 (hCOX2)"
Settings: for COX2 10 minutes pge2 area (counts) Avg. LLE / COX2 2 minutes pge2/pge2d4 area ratio Avg. LLE / COX2 2 minutes pge2 area (counts) Avg. LLE: average LLE; for IC50: average
How it was run: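 Ovine COX-1 (0.1 μg) or human recombinant COX2 (0.2 μg) in 100 mM Tris.HCl pH 8.0 with hematin and epinephrine, preincubated with inhibitor 10 min at 37 °C. Reaction with 5 μM arachidonic acid stopped after 2 min with HCl; PGE2 quantified by LC-MS-MS. IC50 from 12 concentrations in triplicate.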

[1] = 10 minutes, readout pge2 area (counts)
[2] = 10 minutes, readout pge2 area (counts), read-out: COX2 10 minutes pge2 area (counts) Avg. IC50
[3] = read-out: COX2 2 minutes pge2/pge2d4 area ratio Avg. IC50 (microM), 2 minutes, readout pge2/pge2d4 area ratio
[4] = 2 minutes, readout pge2/pge2d4 area ratio
[5] = 2 minutes, readout pge2/pge2d4 area ratio, read-out: COX2 2 minutes pge2/pge2d4 area ratio Avg. IC50
[6] = 2 minutes, readout pge2 area (counts)
[7] = 2 minutes, readout pge2 area (counts), read-out: COX2 2 minutes pge2 area (counts) Avg. IC50

COc1cncc(-c2ccc(S(C)(=O)=O)cc2)n1 [Compound 299]
COX2 10 minutes pge2 area (counts) Avg. LLE [1]: 5.551
IC50 [2]: 0.489 µM
IC50 [3]: 5.2 µM

C[C@@H](Nc1cccc(-c2ccc(S(C)(=O)=O)cc2)n1)c1ccoc1 (single isomer, unassigned) [Compound 112]
COX2 2 minutes pge2/pge2d4 area ratio Avg. LLE [4]: 3.614
IC50 [5]: 0.102 µM
COX2 2 minutes pge2 area (counts) Avg. LLE [6]: 3.525
IC50 [7]: 0.108 µM

CS(=O)(=O)c1ccc(-c2cncc(NCc3cccs3)n2)nc1 [Compound 127]
COX2 2 minutes pge2/pge2d4 area ratio Avg. LLE [4]: 6.121
IC50 [5]: 0.144 µM
COX2 2 minutes pge2 area (counts) Avg. LLE [6]: 6.077
IC50 [7]: 0.169 µM

CS(=O)(=O)c1ccc(-c2nc(NCc3cccs3)cnc2N)cc1 [Compound 90]
COX2 2 minutes pge2/pge2d4 area ratio Avg. LLE [4]: 5.442
IC50 [5]: 0.0671 µM
COX2 2 minutes pge2 area (counts) Avg. LLE [6]: 4.51
IC50 [7]: 0.942 µM

CS(=O)(=O)c1ccc(-c2cnc(C(=O)O)c(NCc3cccs3)n2)cc1 [Compound 261]
COX2 2 minutes pge2/pge2d4 area ratio Avg. LLE [4]: 4.063
IC50 [5]: 4.55 µM
COX2 2 minutes pge2 area (counts) Avg. LLE [6]: 4.034

CS(=O)(=O)c1ccc(-c2cccc(C3CC3c3ccoc3)n2)cc1 (single isomer, unassigned) [Compound 322, 2-[2-(furan-3-yl)cyclopropyl]-6-(4-methanesulfonylphenyl)pyridine]
IC50 (read-out: COX2 2 minutes pge2/pge2d4 area ratio Avg. IC50 (microM), 2 minutes, readout pge2/pge2d4 area ratio, 2 min): 5.2 µM

CC(=O)c1ncc(NCc2cccs2)nc1-c1ccc(S(C)(=O)=O)cc1 [Compound 248]
COX2 2 minutes pge2/pge2d4 area ratio Avg. LLE [4]: 3.159
IC50 [5]: 3.36 µM
COX2 2 minutes pge2 area (counts) Avg. LLE [6]: 3.163
IC50 [7]: 3.3 µM

CS(=O)(=O)c1ccc(-c2cncc(Oc3ccc(F)cc3)n2)cc1 [Compound 211]
COX2 2 minutes pge2/pge2d4 area ratio Avg. LLE [4]: 3.18
IC50 [5]: 1.43 µM
COX2 2 minutes pge2 area (counts) Avg. LLE [6]: 3.779
IC50 [7]: 1.23 µM
COX2 10 minutes pge2 area (counts) Avg. LLE [1]: 3.305
IC50 [2]: 1.64 µM

CS(=O)(=O)c1ccc(-c2cnc(C(F)(F)F)c(OCc3cccs3)n2)cc1 [Compound 118]
COX2 2 minutes pge2/pge2d4 area ratio Avg. LLE [4]: 3.641
IC50 [5]: 0.114 µM
COX2 2 minutes pge2 area (counts) Avg. LLE [6]: 3.56
IC50 [7]: 0.153 µM

CS(=O)(=O)c1ccc(-n2ccc3ccc(C(=O)c4cccs4)nc32)cc1 [Compound 151, [1-(4-methylsulfonylphenyl)pyrrolo[2,3-b]pyridin-6-yl]-(2-thienyl)methanone]
IC50 [5]: 0.293 µM
IC50 [7]: 0.233 µM

CS(=O)(=O)c1ccc(-c2cccc(NCc3ccco3)n2)cn1 [Compound 250]
COX2 2 minutes pge2/pge2d4 area ratio Avg. LLE [4]: 3.529
IC50 [5]: 3.44 µM
COX2 2 minutes pge2 area (counts) Avg. LLE [6]: 3.534
IC50 [7]: 3.47 µM

CS(=O)(=O)c1ccc(Oc2cccc(NCc3cccs3)n2)cc1 [Compound 310]
IC50 [3]: 5.2 µM

CS(=O)(=O)c1ccc(-c2cncc(NCc3ncc[nH]3)n2)cc1 [Compound 279]
COX2 2 minutes pge2/pge2d4 area ratio Avg. LLE [4]: 4.334
COX2 2 minutes pge2 area (counts) Avg. LLE [6]: 4.334
IC50 [3]: 5.2 µM

CS(=O)(=O)c1ccc(-c2cncc(OC[C@H]3CCCO3)n2)cc1 [Compound 252]
COX2 2 minutes pge2/pge2d4 area ratio Avg. LLE [4]: 4.199
IC50 [5]: 3.72 µM
COX2 2 minutes pge2 area (counts) Avg. LLE [6]: 4.054

CS(=O)(=O)c1ccc(-c2nc(OCc3cccs3)ccc2F)cc1 [Compound 101]
COX2 2 minutes pge2/pge2d4 area ratio Avg. LLE [4]: 3.357
IC50 [5]: 0.0867 µM
COX2 2 minutes pge2 area (counts) Avg. LLE [6]: 3.332
IC50 [7]: 0.0772 µM

CS(=O)(=O)c1ccc(-c2cncc(NCc3cccs3)c2)cc1 [Compound 79]
COX2 2 minutes pge2/pge2d4 area ratio Avg. LLE [4]: 4.192
IC50 [5]: 0.0506 µM
COX2 2 minutes pge2 area (counts) Avg. LLE [6]: 4.109
IC50 [7]: 0.0596 µM

CS(=O)(=O)c1ccc(-c2cncc([S+]([O-])Cc3cccs3)n2)cc1 (centres unmarked) [Compound 303]
IC50 [3]: 5.2 µM

CN1CCC(Nc2cncc(-c3ccc(S(C)(=O)=O)cc3)n2)CC1 [Compound 298]
IC50 [3]: 5.2 µM

COc1ncc(NCc2ccncc2)nc1-c1ccc(S(C)(=O)=O)cc1 [Compound 182]
COX2 2 minutes pge2/pge2d4 area ratio Avg. LLE [4]: 5.042
IC50 [5]: 0.559 µM
COX2 2 minutes pge2 area (counts) Avg. LLE [6]: 5.147
IC50 [7]: 0.415 µM

CS(=O)(=O)c1ccc(-c2nncc(NCc3cccs3)n2)cc1 [Compound 171]
COX2 2 minutes pge2/pge2d4 area ratio Avg. LLE [4]: 4.364
IC50 [5]: 0.447 µM
COX2 2 minutes pge2 area (counts) Avg. LLE [6]: 4.345
IC50 [7]: 0.452 µM

CS(=O)(=O)c1ccc(-c2cnc(C(N)=O)c(NCc3cccs3)n2)cc1 [Compound 219]
COX2 2 minutes pge2/pge2d4 area ratio Avg. LLE [4]: 4.686
IC50 [5]: 1.63 µM
COX2 2 minutes pge2 area (counts) Avg. LLE [6]: 4.669
IC50 [7]: 1.69 µM

CS(=O)(=O)c1ccc(-c2cccc(NCc3ccon3)n2)cc1 [Compound 150]
COX2 2 minutes pge2/pge2d4 area ratio Avg. LLE [4]: 5.05
IC50 [5]: 0.276 µM
COX2 2 minutes pge2 area (counts) Avg. LLE [6]: 5.0953
IC50 [7]: 0.249 µM

CS(=O)(=O)c1ccc(-c2ccc3c(n2)N(Cc2cccs2)CC3)cc1 [Compound 121]
IC50 [5]: 0.121 µM
IC50 [7]: 0.124 µM

Cn1ccc(COc2cncc(-c3ccc(S(C)(=O)=O)cc3)n2)n1 [Compound 181]
COX2 2 minutes pge2/pge2d4 area ratio Avg. LLE [4]: 5.19
IC50 [5]: 0.559 µM
COX2 2 minutes pge2 area (counts) Avg. LLE [6]: 5.2357
IC50 [7]: 0.525 µM

CC(C)CNc1cncc(-c2ccc(S(C)(=O)=O)cc2)n1 [Compound 178]
COX2 2 minutes pge2/pge2d4 area ratio Avg. LLE [4]: 4.69
IC50 [5]: 0.544 µM
COX2 2 minutes pge2 area (counts) Avg. LLE [6]: 4.636
IC50 [7]: 0.608 µM
COX2 10 minutes pge2 area (counts) Avg. LLE [1]: 5.429
IC50 [2]: 0.119 µM

CS(=O)(=O)c1ccc(-c2cnc3cn(Cc4cccs4)nc3n2)cc1 [Compound 288]
COX2 2 minutes pge2/pge2d4 area ratio Avg. LLE [4]: 2.844
COX2 2 minutes pge2 area (counts) Avg. LLE [6]: 2.844
IC50 [3]: 5.2 µM

CCCCOc1cncc(-c2ccc(S(C)(=O)=O)cc2)n1 [Compound 280]
COX2 2 minutes pge2/pge2d4 area ratio Avg. LLE [4]: 3.204
COX2 10 minutes pge2 area (counts) Avg. LLE [1]: 4.508
IC50 [2]: 0.258 µM
IC50 [3]: 5.2 µM

CS(=O)(=O)c1ccc(-c2nc(NCc3cccs3)cnc2C(N)=O)cc1 [Compound 257]
COX2 2 minutes pge2/pge2d4 area ratio Avg. LLE [4]: 4.28
IC50 [5]: 4.09 µM
COX2 2 minutes pge2 area (counts) Avg. LLE [6]: 4.347
IC50 [7]: 3.49 µM

CS(=O)(=O)c1ccc(-c2cccc([C@H](O)Cc3cccs3)n2)cc1 [Compound 284]
COX2 2 minutes pge2/pge2d4 area ratio Avg. LLE [4]: 2.424
COX2 2 minutes pge2 area (counts) Avg. LLE [6]: 2.424
IC50 [3]: 5.2 µM

CS(=O)(=O)c1ccc(-c2cccc(C[C@@H](O)c3cccs3)n2)cc1 [Compound 292]
COX2 2 minutes pge2/pge2d4 area ratio Avg. LLE [4]: 2.424
IC50 [5]: 5.2 µM

CS(=O)(=O)c1ccc(-c2cc(NCc3cccs3)cnn2)cc1 [Compound 220]
COX2 2 minutes pge2/pge2d4 area ratio Avg. LLE [4]: 3.784
IC50 [5]: 1.67 µM
COX2 2 minutes pge2 area (counts) Avg. LLE [6]: 3.69
IC50 [7]: 2.09 µM

CS(=O)(=O)c1ccc(-c2cncc(N3CCOCC3)n2)cc1 [Compound 286]
COX2 2 minutes pge2/pge2d4 area ratio Avg. LLE [4]: 5.044
COX2 10 minutes pge2 area (counts) Avg. LLE [1]: 5.772
IC50 [2]: 0.974 µM
IC50 [3]: 5.2 µM

CS(=O)(=O)c1ccc(-c2cncc(OCc3cccs3)c2)cc1 [Compound 232]
COX2 2 minutes pge2/pge2d4 area ratio Avg. LLE [4]: 2.229
IC50 [5]: 2.41 µM
COX2 2 minutes pge2 area (counts) Avg. LLE [6]: 2.107
IC50 [7]: 2.35 µM

CS(=O)(=O)c1ccc(-c2cccc(C(=O)Cc3cccs3)n2)cc1 [Compound 206]
COX2 2 minutes pge2/pge2d4 area ratio Avg. LLE [4]: 2.741
IC50 [5]: 1.27 µM
COX2 2 minutes pge2 area (counts) Avg. LLE [6]: 2.638
IC50 [7]: 1.59 µM
